Measurements as given in ChEMBL document CHEMBL5137011, “Semisynthetic pleuromutilin antimicrobials with therapeutic potential against methicillin-resistant Staphylococcus aureus by targeting 50S ribosomal subunit” (Eur J Med Chem, 2022).
≈ marks a conversion by molar mass, not a printed value.

Legend:
RAW264.7 = experiment: Cytotoxicity against mouse RAW264.7 cells assessed as reduction in cell viability at 8 ug/ml incubated for 16 hrs by MTT assay; type: toxicity, cell-based; settings: raw264.7, 16 h, dose 8 µg/ml
Staphylococcus aureus [1] = experiment: Antibacterial activity against Staphylococcus aureus 144 assessed as inhibition of bacterial growth incubated for 16 hrs by CLSI based broth microdilution method; type: functional
Staphylococcus aureus [2] = experiment: Antibacterial activity against Staphylococcus aureus AD3 assessed as inhibition of bacterial growth incubated for 16 hrs by CLSI based broth microdilution method; type: functional
16HBE14o- [3] = experiment: Cytotoxicity against human 16HBE14o- cells assessed as reduction in cell viability at 8 ug/ml incubated for 16 hrs by MTT assay; type: toxicity, cell-based; settings: dose 8 µg/ml
Staphylococcus aureus [4] = experiment: Antibacterial activity against Staphylococcus aureus SA17 assessed as inhibition of bacterial growth incubated for 16 hrs by CLSI based broth microdilution method; type: functional
Staphylococcus aureus [5] = experiment: Antibacterial activity against methicillin-resistant Staphylococcus aureus ATCC 43300 assessed as inhibition of bacterial growth incubated for 16 hrs by CLSI based broth microdilution method; type: functional
Staphylococcus aureus [6] = experiment: Antibacterial activity against Staphylococcus aureus ATCC 29213 assessed as inhibition of bacterial growth incubated for 16 hrs by CLSI based broth microdilution method; type: functional
16HBE14o- [7] = experiment: Cytotoxicity against human 16HBE14o- cells assessed as reduction in cell viability at 8 ug/ml incubated for 16 hrs by MTT assay relative to control; type: toxicity, cell-based; settings: at 8 µg/mL
Staphylococcus aureus [8] = experiment: Antibacterial activity against methicillin-resistant Staphylococcus aureus ATCC 43300 assessed as log reduction in colony forming unit at 4 times MIC measured after 24 hrs by time kill assay; type: functional
Staphylococcus aureus [9] = experiment: Antibacterial activity against methicillin-resistant Staphylococcus aureus ATCC 43300 assessed as log reduction in colony forming unit at 4 times MIC measured after 3 hrs by time kill assay; type: functional
[10] = target: Bacterial 70S ribosome (Bacteria) (UniProt P0A7V0+P60723+P0AG67+P0A7R5+P0A7R9+P0A7S3+P0A7S9+P0AG59+P0ADZ4+P0A7T3+P0AG63+P0A7T7+P0A7U3+P0A7U7+P68679+P0A7V3+P0A7V8+P0A7W1+P02358+P02359+P0A7W7+P0A7X3+P0A7J3+P0A7J7+P0AA10+P0ADY3+P02413+P0ADY7+P0AG44+P0C018+P0A7K6+P0A7L0+P0A7L3+P0AG48+P61175+P0ADZ0+P60624+P68919+P0A7L8+P0A7M2+P0A7M6+P60422+P0AG51+P0A7N1+P0A7M9+P0A7N4+P0A7N9+P0A7P5+P0A7Q1+Q2EEQ2+P0A7Q6+P60438+P62399+P0AG55+P0A7K2); experiment: Binding affinity to Staphylococcus aureus ATCC 43300 50S ribosomal subunit assessed as association rate constant by surface plasmon resonance analysis; type: subcellular
Bacterial 70S ribosome = experiment: Binding affinity to Staphylococcus aureus ATCC 43300 50S ribosomal subunit assessed as equilibrium dissociation constant by surface plasmon resonance analysis; type: subcellular
Staphylococcus aureus [11] = experiment: Antibacterial activity against methicillin-resistant Staphylococcus aureus ATCC 43300 infected in ICR/Swiss mouse […] thigh infection model assessed as log reduction in bacterial load in thigh at 20 mg/kg, iv administered as bolus injection measured after 24 hrs; type: functional

Row | Structure (SMILES) | Activity (RAW264.7) | MIC (Staphylococcus aureus [1]) [µg/mL] | MIC (Staphylococcus aureus [2]) [µg/mL] | Activity (16HBE14o- [3]) | MIC (Staphylococcus aureus [4]) [µg/mL] | MIC (Staphylococcus aureus [5]) [µg/mL] | MIC (Staphylococcus aureus [6]) [µg/mL] | Activity (16HBE14o- [7]) [%] | Activity (Staphylococcus aureus [8]) [log10CFU/ml] | Activity (Staphylococcus aureus [9]) [log10CFU/ml] | Ka [10] | Kd (Bacterial 70S ribosome) [µM] | Activity (Staphylococcus aureus [11]) [log10CFU/ml]
1 | C=C[C@]1(C)C[C@@H](OC(=O)CSc2nnc(-c3ccc(F)cc3)[nH]2)[C@]2(C)[C@H](C)CC[C@]3(CCC(=O)[C@H]32)[C@@H](C)[C@@H]1O | Non-Toxic | 1 (≈ 1.8 µM) | 0.0625 (≈ 0.112 µM) | Non-Toxic | 1 (≈ 1.8 µM) | 0.125 (≈ 0.225 µM) | 0.125 (≈ 0.225 µM) | – | – | – | – | – | –
2 | C=C[C@]1(C)C[C@@H](OC(=O)CSc2nnc(-c3cccc(F)c3)[nH]2)[C@]2(C)[C@H](C)CC[C@]3(CCC(=O)[C@H]32)[C@@H](C)[C@@H]1O | Non-Toxic | 1 (≈ 1.8 µM) | 0.0625 (≈ 0.112 µM) | Non-Toxic | 0.5 (≈ 0.9 µM) | 0.125 (≈ 0.225 µM) | 0.125 (≈ 0.225 µM) | – | – | – | – | – | –
3 | C=C[C@]1(C)C[C@@H](OC(=O)CSc2nnc(-c3cccc(C)c3)[nH]2)[C@]2(C)[C@H](C)CC[C@]3(CCC(=O)[C@H]32)[C@@H](C)[C@@H]1O | Non-Toxic | 4 (≈ 7.25 µM) | 0.0625 (≈ 0.113 µM) | Non-Toxic | 1 (≈ 1.81 µM) | 0.25 (≈ 0.453 µM) | 0.25 (≈ 0.453 µM) | – | – | – | – | – | –
4 | C=C[C@]1(C)C[C@@H](OC(=O)CSc2nnc(-c3ccc(Cl)cc3)[nH]2)[C@]2(C)[C@H](C)CC[C@]3(CCC(=O)[C@H]32)[C@@H](C)[C@@H]1O | Non-Toxic | 1 (≈ 1.75 µM) | 0.125 (≈ 0.218 µM) | Non-Toxic | 0.5 (≈ 0.874 µM) | 0.125 (≈ 0.218 µM) | 0.0625 (≈ 0.109 µM) | – | – | – | – | – | –
5 | C=C[C@]1(C)C[C@@H](OC(=O)CSc2nnc(-c3cccc(C(F)(F)F)c3)[nH]2)[C@]2(C)[C@H](C)CC[C@]3(CCC(=O)[C@H]32)[C@@H](C)[C@@H]1O | Non-Toxic | > 32 | 0.25 (≈ 0.413 µM) | – | > 32 | 1 (≈ 1.65 µM) | 2 (≈ 3.3 µM) | > 50 | – | – | – | – | –
6 | C=C[C@]1(C)C[C@@H](OC(=O)CSc2nnc(-c3cccc(OC)c3)[nH]2)[C@]2(C)[C@H](C)CC[C@]3(CCC(=O)[C@H]32)[C@@H](C)[C@@H]1O | Non-Toxic | 0.5 (≈ 0.881 µM) | 0.0625 (≈ 0.11 µM) | Non-Toxic | 0.5 (≈ 0.881 µM) | 0.125 (≈ 0.22 µM) | 0.125 (≈ 0.22 µM) | – | – | – | – | – | –
7 | C=C[C@]1(C)C[C@@H](OC(=O)CSc2nnc(-c3ccc(C)cc3)[nH]2)[C@]2(C)[C@H](C)CC[C@]3(CCC(=O)[C@H]32)[C@@H](C)[C@@H]1O | Non-Toxic | 1 (≈ 1.81 µM) | 0.0625 (≈ 0.113 µM) | Non-Toxic | 0.5 (≈ 0.906 µM) | 0.125 (≈ 0.227 µM) | 0.125 (≈ 0.227 µM) | – | – | – | – | – | –
8 | C=C[C@]1(C)C[C@@H](OC(=O)CSc2nnc(-c3cccc(Cl)c3)[nH]2)[C@]2(C)[C@H](C)CC[C@]3(CCC(=O)[C@H]32)[C@@H](C)[C@@H]1O | Non-Toxic | 0.25 (≈ 0.437 µM) | 0.125 (≈ 0.218 µM) | Non-Toxic | 0.125 (≈ 0.218 µM) | 0.0625 (≈ 0.109 µM) | 0.125 (≈ 0.218 µM) | – | -9.23 | -1 | – | – | –
9 | C=C[C@]1(C)C[C@@H](OC(=O)CSc2nnc(-c3ccccc3[N+](=O)[O-])[nH]2)[C@]2(C)[C@H](C)CC[C@]3(CCC(=O)[C@H]32)[C@@H](C)[C@@H]1O | Non-Toxic | 0.25 (≈ 0.429 µM) | 0.25 (≈ 0.429 µM) | Non-Toxic | 0.125 (≈ 0.215 µM) | 0.25 (≈ 0.429 µM) | 0.125 (≈ 0.215 µM) | – | – | – | – | – | –
10 | C=C[C@]1(C)C[C@@H](OC(=O)CSc2nnc(-c3ccccc3C(F)(F)F)[nH]2)[C@]2(C)[C@H](C)CC[C@]3(CCC(=O)[C@H]32)[C@@H](C)[C@@H]1O | Non-Toxic | 8 (≈ 13.2 µM) | 0.25 (≈ 0.413 µM) | Non-Toxic | 4 (≈ 6.6 µM) | 0.25 (≈ 0.413 µM) | 0.5 (≈ 0.825 µM) | – | – | – | – | – | –
11 | C=C[C@]1(C)C[C@@H](OC(=O)CSc2nnc(-c3cccc([N+](=O)[O-])c3)[nH]2)[C@]2(C)[C@H](C)CC[C@]3(CCC(=O)[C@H]32)[C@@H](C)[C@@H]1O | Non-Toxic | 2 (≈ 3.43 µM) | 0.0625 (≈ 0.107 µM) | Non-Toxic | 0.5 (≈ 0.858 µM) | 0.125 (≈ 0.215 µM) | 0.25 (≈ 0.429 µM) | – | – | – | – | – | –
12 | C=C[C@]1(C)C[C@@H](OC(=O)CSc2nnc(-c3ccc(OC)cc3)[nH]2)[C@]2(C)[C@H](C)CC[C@]3(CCC(=O)[C@H]32)[C@@H](C)[C@@H]1O | Non-Toxic | 1 (≈ 1.76 µM) | 0.0625 (≈ 0.11 µM) | Non-Toxic | 0.5 (≈ 0.881 µM) | 0.125 (≈ 0.22 µM) | 0.25 (≈ 0.44 µM) | – | – | – | – | – | –
13 | C=C[C@]1(C)C[C@@H](OC(=O)CSc2nnc(-c3ccc(C(F)(F)F)cc3)[nH]2)[C@]2(C)[C@H](C)CC[C@]3(CCC(=O)[C@H]32)[C@@H](C)[C@@H]1O | Non-Toxic | > 32 | 0.25 (≈ 0.413 µM) | – | > 32 | 0.5 (≈ 0.825 µM) | 2 (≈ 3.3 µM) | > 50 | – | – | – | – | –
14 | C=C[C@]1(C)C[C@@H](OC(=O)CSc2nnc(-c3ccc([N+](=O)[O-])cc3)[nH]2)[C@]2(C)[C@H](C)CC[C@]3(CCC(=O)[C@H]32)[C@@H](C)[C@@H]1O | Non-Toxic | 2 (≈ 3.43 µM) | 0.0625 (≈ 0.107 µM) | Non-Toxic | 0.5 (≈ 0.858 µM) | 0.125 (≈ 0.215 µM) | 0.25 (≈ 0.429 µM) | – | – | – | – | – | –
15 | C=C[C@]1(C)C[C@@H](OC(=O)CSc2nnc(-c3ccccc3C)[nH]2)[C@]2(C)[C@H](C)CC[C@]3(CCC(=O)[C@H]32)[C@@H](C)[C@@H]1O | Non-Toxic | 1 (≈ 1.81 µM) | 0.125 (≈ 0.227 µM) | Non-Toxic | 0.5 (≈ 0.906 µM) | 0.0625 (≈ 0.113 µM) | 0.25 (≈ 0.453 µM) | – | – | – | – | – | –
16 | C=C[C@]1(C)C[C@@H](OC(=O)CSc2nnc(-c3ccccc3Cl)[nH]2)[C@]2(C)[C@H](C)CC[C@]3(CCC(=O)[C@H]32)[C@@H](C)[C@@H]1O | Non-Toxic | 0.5 (≈ 0.874 µM) | 0.125 (≈ 0.218 µM) | Non-Toxic | 0.5 (≈ 0.874 µM) | 0.125 (≈ 0.218 µM) | 0.5 (≈ 0.874 µM) | – | – | – | – | – | –
17 | C=C[C@]1(C)C[C@@H](OC(=O)CSc2nnc(-c3ccccc3OC)[nH]2)[C@]2(C)[C@H](C)CC[C@]3(CCC(=O)[C@H]32)[C@@H](C)[C@@H]1O | Non-Toxic | 0.125 (≈ 0.22 µM) | 0.0625 (≈ 0.11 µM) | Non-Toxic | 0.125 (≈ 0.22 µM) | 0.0625 (≈ 0.11 µM) | 0.125 (≈ 0.22 µM) | – | -7.1 | -1.53 | 4.99 10^2/Ms | 121 | -1.27
